For the assay, the system named is human mixed lymphocyte reaction (MLR). Put plainly: human mixed lymphocyte reaction (MLR) assay. The note with it: immunosuppressant activity, read-out: Human MLR IC50 ± S.E.M. The format is cell-based. On the procedure: The immunosuppressant activity of the compounds of the present invention was determined using the human mixed lymphocyte reaction (MLR) assay described by Kino, T. et al. in Transplantation Proceedings, XIX(5):36-39. Suppl. 6 (1987). […]

As usually defined, the IC50 is the concentration that inhibits the measured activity by half. With `CO[C@H]1C[C@@H]2CC[C@@H](C)[C@@](O)(O2)C(=O)C(=O)N2CCCC[C@H]2C(=O)O[C@H]([C@H](C)C[C@@H]2CC[C@@H](O)[C@H](OC)C2)CC(=O)[C@H](C)/C=C(\C)[C@@H](O)[C@@H](OC)C(=O)[C@H](C)C[C@H](C)/C=C/C=C/C=C/1C` [Rapamycin, reference compound], the IC50 was 0.91 ± 0.36 nM.

Source of the values: EP1015459B9 (ABBOTT LABORATORIES, priority 1997, dated 1999).
